Two sequences from patent US5612453A, “Selected peptides of the group-specific antigen (gag) of human immunodeficiency virus (HIV), the preparation and use thereof” (Chiron Behring GmbH & Co., priority 1990, dated 1997) can be followed below.

What all share (format): cell-based
Assay [1] relates to HIV-1 virus strain HTLV-IIIB. As to the kind of experiment: p24 detection by Western blot in HIV-infected cells after gag peptide treatment. To be noted: two weeks after infection, Western blot with anti-p24 MAbs. In general terms: A western blot detects proteins with antibodies after separation by electrophoresis.
Method: (§1) Cells. Permanently growing T lymphocytes (Jurkat or H9 cells) were used for the in vitro experiments. The medium used was conventional RPMI 1640 with 10% FCS, 2% NaHCO3 (5% strength), 1% penicillin/streptavidin solution and 2 mg/l Polybrene. The experiments were carried out either in 96-well microtiter plates (Nunc) or in 24-well plates (Nunc).
(§2) Viruses. HIV-1 virus strain HTLV-IIIB and HIV-2 strain ROD were used.
In the first experiment, 50 μl of 1×10^6 jurkat cells/ml were pipetted into each well of 96-well plates, and each was infected with 50 μl (1000 TCID50) HTLV-IIIB. The gag peptide concentration was adjusted to 200 μg/ml or 40 μg/ml. After one week, 100 μl of supernatant were removed and any cells still present were removed by centrifugation. Then 80 μl of supernatant were placed on an uninfected jurkat cell culture. Viral antigen was detected in the infected cells by immunolabeling after a Western blot. For this, the cells remaining after the inhibition experiment were taken up in 2×SDS-PAGE sample buffer and fractionated in a 14% PAG. The fractionated proteins were then blotted onto a nitrocellulose membrane and incubated with an anti-p24 HIV-1 monoclonal antibody to detect viral proteins. […] Infectious HIV in the supernatant of the peptide-treated cells was analyzed by the reverse transcriptase assay. […]
A further assay concerns HIV-2 strain ROD. As to the kind of experiment: Inhibition of HIV-2 synthesis: reverse transcriptase activity in detector cell culture supernatant (Experiment 3). To be noted: Experiment 3 (FIG. 3); 100 TCID50 HIV-2, H9 cells.
The subject of assay [2] is HIV-1 virus strain HTLV-IIIB. The assay can be described thus: Inhibition of HIV-1 synthesis: infectious virus / reverse transcriptase activity in detector cell culture supernatant. To be noted: for inhibitory effect on HIV-1 synthesis (reverse transcriptase activity of detector culture supernatant): Experiment 3 (FIG. 3), 100 TCID50 HIV-1, jurkat cells, detector cultures incubated two weeks; for inhibitory effect on HIV-1 synthesis: Experiments 1 and 2, jurkat cells, 1000 or 100 TCID50 HTLV-IIIB, peptide 200 or 40 μg/ml.
Method: These peptides were added in various concentrations (200-40 μg/ml) to freshly infected jurkat cells. Infection was carried out with 100-1000 TCID50. The infection was analyzed by microscopic assessment and investigation of the supernatant for the content of infectious HIV. For this purpose, the cell supernatant was added to non-infected jurkat cells. After incubation for two weeks, this detector cell culture was examined for HIV under the microscope and by reverse transcriptase assay.
Permanently growing T lymphocytes (Jurkat or H9 cells) were used for the in vitro experiments. The medium used was conventional RPMI 1640 with 10% FCS, 2% NaHCO3 (5% strength), 1% penicillin/streptavidin solution and 2 mg/l Polybrene. The experiments were carried out either in 96-well microtiter plates (Nunc) or in 24-well plates (Nunc).
HIV-1 virus strain HTLV-IIIB and HIV-2 strain ROD were used.
(§3) Reverse transcriptase assay. The microassay for detecting viral reverse transcriptase was carried out by the method of Gregersen et al. (Gregersen et al. (1988) Detection of human immunodeficiency virus and other retroviruses in cell culture supernatants by a reverse transcriptase microassay. J. Virol. Methods 19, 161-168). Cell culture supernatants were concentrated five-fold by PEG precipitation. Positive controls (VC) were supernatants of untreated infected cell cultures, and negative controls (NC) were cell culture supernatants from uninfected cells. The value measured for the NC was doubled and used as value for excluding negative cells.
In the first experiment, 50 μl of 1×10^6 jurkat cells/ml were pipetted into each well of 96-well plates, and each was infected with 50 μl (1000 TCID50) HTLV-IIIB. The gag peptide concentration was adjusted to 200 μg/ml or 40 μg/ml. After one week, 100 μl of supernatant were removed and any cells still present were removed by centrifugation. Then 80 μl of supernatant were placed on an uninfected jurkat cell culture. […] Infectious HIV in the supernatant of the peptide-treated cells was analyzed by the reverse transcriptase assay.
1000 TCID50 HIV-1 were employed for infecting the jurkat cells. Reverse transcriptase activity measured in cpm in the cell culture supernatant from the detector cell culture. The supernatant was concentrated five-fold by PEG precipitation. VC=virus control; NC=negative control. Twice the NC value was used to exclude negative cell cultures. To improve clarity, the RT values are reported in the figure in logarithmic presentation.
100 TCID50 HIV-1 were employed to infect the jurkat cells. Reverse transcriptase activity measured in cpm in the cell culture supernatant from the detector cell culture. The supernatant was concentrated five-fold by PEG precipitation. VC=virus control; NC=negative control.

Method for HIV-2 strain ROD: as §1, §2, §3
H9 cells were infected with 100 TCID50 HIV-2 for this experiment. […]
100 TCID50 HIV-1 and HIV-2 were employed to infect the jurkat and H9 cells respectively. Reverse transcriptase activity measured in cpm in the cell culture supernatant from the detector cell culture. […]

On to NPGLLETSEGCROILGQLQPSLQT [Peptide 5], for which the “p24 Detection” value in assay [1] is reported as “(+)”. Also, the “inhibition of HIV-2 synthesis (reverse transcriptase activity of detector culture supernatant)” value with HIV-2 strain ROD is given as “very clearly evident”. In assay [2], the “inhibitory effect on HIV-1 synthesis (reverse transcriptase activity of detector culture supernatant)” value was “strong inhibitory effect” and the “inhibitory effect on HIV-1 synthesis” value is “exerted an inhibitory effect on HIV-1 synthesis”.
On to “WASRELERFAVNPGLLETSEGCRQ [Peptide 4, synthetic gag peptide from the p17 submembrane protein]”, for which the “p24 Detection” value in assay [1] is “-”. Also, in the assay with HIV-2 strain ROD, the “inhibition of HIV-2 synthesis (reverse transcriptase activity of detector culture supernatant)” value was “very clearly evident”. Moreover, in assay [2], the “inhibitory effect on HIV-1 synthesis (reverse transcriptase activity of detector culture supernatant)” value is “strong inhibitory effect” and the “inhibitory effect on HIV-1 synthesis” value is recorded as “exerted an inhibitory effect on HIV-1 synthesis”.
